What was measured:
[1] = target: PBP5fm (Enterococcus faecium, UniProt Q47759); experiment: PBP5fm enzymatic inhibition assay (fluorescein-labeled ampicillin, residual penicillin binding activity); assay type: biochemical, Enterococcus faecium D63r; conditions: 4 h; residual activity of the enzyme at 1 mM inhibitor; 0.01% Triton X-100; read-out: PBP5fm RA [%]
Protocol: PBP2a from Staphylococcus aureus ATCC 43300 and PBP5fm from Enterococcus faecium D63r were overproduced and purified as described previously, [18].
Each of the purified PBPs (2.5 µM) were first incubated with 1 mM potential inhibitor in 100 mM phosphate buffer, 0.01% Triton X-100[19], pH 7, for 4 h at 30°C. Then, 25 µM fluorescein-labeled ampicillin[20] was added to detect the residual penicillin binding activity (RA). The samples were further incubated for 30 min at 37°C in a total volume of 20 µL. Denaturation buffer was added (0.1 M Tris/HCl, pH 6.8, containing 25% glycerol, 2% SDS, 20% β-mercaptoethanol and 0.02% bromophenol blue) and the samples were heated to 100°C for 1 min. The samples were then loaded onto a 10% SDS-acrilamide gel (10×7 cm) and electrophoresis was performed for 45 min at 180 V (12 mA). Detection and quantification of the RAs were with Molecular Image FX equipment and Quantity One software (BioRad, Hercules, CA, USA). Three independent experiments were carried out for each inhibitor.

[2] = target: PBP2x 5204 (Streptococcus pneumoniae, UniProt P59676); experiment: PBP2x 5204 enzymatic inhibition assay (S2d hydrolysis, DTNB); assay type: biochemical, Streptococcus pneumoniae strain 5204
PBP2x 5204, sequence (P59676 49-750): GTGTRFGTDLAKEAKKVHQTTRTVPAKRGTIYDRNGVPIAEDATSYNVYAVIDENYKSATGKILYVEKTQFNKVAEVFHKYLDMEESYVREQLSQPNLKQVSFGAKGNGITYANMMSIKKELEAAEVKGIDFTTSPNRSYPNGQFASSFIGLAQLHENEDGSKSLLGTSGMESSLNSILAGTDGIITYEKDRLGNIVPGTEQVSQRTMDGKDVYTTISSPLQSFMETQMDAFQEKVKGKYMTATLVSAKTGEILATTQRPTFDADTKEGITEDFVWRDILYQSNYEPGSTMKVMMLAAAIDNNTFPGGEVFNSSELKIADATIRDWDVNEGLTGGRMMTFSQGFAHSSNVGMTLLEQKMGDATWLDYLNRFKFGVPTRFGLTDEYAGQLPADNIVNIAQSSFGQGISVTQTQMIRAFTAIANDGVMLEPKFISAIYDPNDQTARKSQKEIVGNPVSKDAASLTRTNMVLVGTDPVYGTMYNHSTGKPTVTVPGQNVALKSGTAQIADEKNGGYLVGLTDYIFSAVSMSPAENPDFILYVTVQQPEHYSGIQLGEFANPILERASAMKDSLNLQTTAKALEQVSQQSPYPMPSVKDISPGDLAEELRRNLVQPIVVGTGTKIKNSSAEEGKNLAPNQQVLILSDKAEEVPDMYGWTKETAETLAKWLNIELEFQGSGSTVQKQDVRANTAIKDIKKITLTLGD
Protocol: PBP2x-5204 from Streptococcus pneumonia and N-benzoyl-D-alanyl-thioglycolate S2d[21], [22] were prepared as previously described. All assays with PBP2x 5204 were carried out in 96-well microtiter plates (Brand, Wertheim, Germany). PBP2x 5204 (0.6 µM) was incubated in the presence of the potential inhibitors in 10 mM sodium phosphate buffer (pH 7.0) containing 70 mM D-alanine and 0.01 mg/mL BSA, for 4 h at 25°C. This preincubation was used to also detect slow binding inhibitors. After the preincubation, the RA of PBP2x 5204 was determined. The initial rate of hydrolysis of 1 mM S2d in the presence of 1 mM DTNB was determined by monitoring the increase in absorbance at 412 nm (DTNB: ε[Δ ε] = […]) using a microplate absorbance reader (Power Wave X, Biotek Instruments, Winooski, U.S.A.). The rate of spontaneous hydrolysis of S2d in the presence of the potential inhibitors was also determined in the absence of PBP2x 5204. All of the assays were carried out in triplicate. The determination of the RA of PBP2x 5204 in the absence of inhibitors was carried out six times on each plate. A test compound was considered as an inhibitor if the RA was <80%. In this case, to reveal false positives, the assays were also carried out under the same conditions in the presence of 0.01% Triton X-100. As described in the literature, promiscuous inhibitors (false positives) are slow binding, noncompetitive inhibitors. To avoid detailed kinetic investigations, it is possible to identify such compounds by carrying out the assays in the presence of Triton X-100[14], [19]. Promiscuous inhibitors show no inhibition in the presence of Triton X-100. The IC50 values in the presence of Triton X-100 were determined if the RAs were <50%. (RA: ∼50%, IC50∼c, c: concentration of compound in the assay; RA >50%, IC50 > c). The RA was measured over a range of concentrations, from which the IC50 values were determined by non-linear regression analysis, using Sigma Plot (Systat software) and fitting the data to the equation y = y0+(a×b)/(b+x)[23].

PBP5fm, sequence (Q47759 entry or part of it): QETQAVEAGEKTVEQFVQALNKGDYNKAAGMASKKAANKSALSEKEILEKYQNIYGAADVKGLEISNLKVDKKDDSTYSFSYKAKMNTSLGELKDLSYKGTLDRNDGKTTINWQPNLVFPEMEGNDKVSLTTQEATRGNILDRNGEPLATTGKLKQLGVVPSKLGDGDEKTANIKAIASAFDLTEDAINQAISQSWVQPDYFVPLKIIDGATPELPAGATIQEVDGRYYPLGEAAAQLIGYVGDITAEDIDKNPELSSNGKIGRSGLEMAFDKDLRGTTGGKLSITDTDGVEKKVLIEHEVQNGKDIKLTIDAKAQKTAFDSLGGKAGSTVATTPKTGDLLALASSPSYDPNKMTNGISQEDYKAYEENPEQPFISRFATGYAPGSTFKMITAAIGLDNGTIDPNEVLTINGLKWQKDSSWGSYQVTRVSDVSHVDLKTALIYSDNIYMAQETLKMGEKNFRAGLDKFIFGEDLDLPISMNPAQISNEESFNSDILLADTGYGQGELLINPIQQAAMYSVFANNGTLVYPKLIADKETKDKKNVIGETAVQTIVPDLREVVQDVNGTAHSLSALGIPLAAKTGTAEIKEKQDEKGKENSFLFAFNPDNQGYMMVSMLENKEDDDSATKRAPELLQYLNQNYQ

Question: `CCCCOc1ccc2cc(S(=O)(=O)Nc3ccccc3C(=O)O)ccc2c1` [compound 1, 2-(6-butoxynaphthalene-2-sulfonamido)benzoic acid] was tested. Which activity at 1000 µM [1] did it give?
Answer: Its activity at 1000 µM is 100%.

Question: And the IC50 ([2]; read-out: PBP2x5204 IC50, in the presence of 0.01% Triton X-100)?
Answer: The IC50 was 391 µM.

Question: What about the “PBP2x5204 RA [%]” value ([2]; residual activity of the enzyme at 500 µM inhibitor, 240 min) of the same molecule?
Answer: Its value is 38%.

— publication PMC3090393, “New Noncovalent Inhibitors of Penicillin-Binding Proteins from Penicillin-Resistant Bacteria” (PLoS ONE, 2011)
